Experimental data from patent US10131881B2, “Method for preparing induced pluripotency stem cells from mesenchymal stem cells by using phlorotannin fraction” (BBHC, priority 2014, dated 2018).
Where “and” joins values, the source holds several entries; their conditions need not be identical. Equal values may be shown once.

Columns and labels:
[1] = test system: mesenchymal stem cells derived from human umbilical cord; experiment: Induction of pluripotency stem cells from mesenchymal stem cells (colony formation); format: cell-based; details: DMEM F-12 basic medium plus 0.1 v/v % energy water
Procedure: An experiment for measuring induction ability of pluripotency stem cells from mesenchymal stem cells derived from human umbilical cord according to a concentration of the phlorotannin fraction prepared in Example 1-1 was performed. In a control group, DMEM F-12 (Gibco) as a dedicated medium of MSC, 10% FBS, 100 unit/ml penicillin, and 50 μg/ml streptomycin were used as a basic medium (Normal), and in an experimental group, mesenchymal stem cells derived from human which was subjected to three sub-cultures were used and phlorotannin fractions having concentrations of 1 μg/ml, 20 μg/ml, 50 μg/ml, 100 μg/ml, 400 μg/ml, 800 μg/ml, and 1000 μg/ml and 0.1 v/v % energy water (purified deionized water containing SiO2, Al2O3, TiO3, Fe2O3, CaO, Na2O, K2O, and LiO, STC) were added in the medium. The mesenchymal stem cells derived from human umbilical cord were isolated and washed and mononuclear cells were inoculated in a 6-well plate (dish) with 1×10^4 cells and maintained and incubated at 37° C. and 5% CO2.
An experiment for measuring induction ability of pluripotency stem cells from mesenchymal stem cells derived from human according to a concentration of compound 1 among the compounds isolated in Example 1-2 was performed. […]

[2] = test system: OCT4, SOX2, SSEA-4, and AP; experiment: Immunochemical / AP staining of induced colonies for pluripotency stem cell-specific markers; format: cell-based, human; details: confocal microscopy; antibodies for OCT4, SOX2, SSEA-4; AP fluorogenic dye
Procedure: With respect to the pluripotency stem cells induced by the method of the present invention, whether to express stage-specific embryonic antigen4 (SSEA-4), alkaline phosphatase (AP), OCT4, and SOX2 as specific proteins to embryonic stem cells was analyzed by using antibodies thereof and an immunochemical staining method. During the staining process, cells were first fixed by using 4% paraformaldehyde and washed with PBS, and blocked with a 1% BSA solution. The cells were treated with primary antibodies for OCT4, SOX2, and SSEA-4 and reacted at 4° C. for 18 hours, and then washed with PBS, treated with secondary antibodies with fluorescence (FITC) to the primary antibodies, and reacted at room temperature for 1 hour. The cells were washed with PBS and then the expression was analyzed by using a confocal microscope. […] AP staining was performed with an alkaline phosphatase cell-permeable fluorogenic substrate dye, the AP fluorogenic dye was diluted in a DMEM F-12 culture solution to be treated in colonies, and then reacted for 20 to 30 min, washed with the DMEM F-12 culture solution two times, and the expression was analyzed by using a confocal microscope, and the result was illustrated in FIG. 17. […]

Oc1cc(O)cc(Oc2c(O)cc(O)c3c2Oc2c(O)cc(O)c(-c4c(O)cc(O)c5c4Oc4c(O)cc(Oc6c(O)cc(O)cc6O)c(Oc6cc(O)cc(O)c6)c4O5)c2O3)c1 [compound 1, 2-O-(2,4,6-trihydroxyphenyl)-6,6′-bieckol]
time after which colony formation was observed ([1]; at the colony-forming concentrations): 14 days | concentration at which colonies were formed ([1]; tested 1, 20, 50, 100, 400, 800, 1000 μg/ml, colonies only at stated concentrations): 50 µg/mL and 100 µg/mL | staining of colonies by pluripotency stem cell-specific markers [2]: stained by OCT4, SOX2, SSEA-4, and AP
